Patent US20120178915A1, “PYRIMIDINE DERIVATIVES AND ANALOGS, PREPARATION METHOD AND USE THEREOF” (priority 2009, published 2012)
≈ marks a conversion by molar mass, not a printed value. Read-outs that look alike come from different tables or passages of the source.

What was measured:
[1] = tested on: Gram-positive Bacteria; assay type: cell-based; conditions: Enterococcus faecalis (VRE), Staphylococcus aureus (MRSA), Streptococcus pneumoniae 6303 (PRSP); Bacillus cereus, Bacillus subtilis, Enterococcus faecalis, Staphylococcus aureus, Streptococcus pneumoniae, Streptococcus agalactiae B and streptococci 4
[2] = tested on: Bacillus cereus 2; assay: microbe, parasite or virus in culture; assay type: cell-based; conditions: 37° C., 24 h, read-out: Minimum Inhibitory Concentration, MIC
[3] = tested on: Streptococcus agalactiae B; assay: microbe, parasite or virus in culture; assay type: cell-based; conditions: 37° C., 24 h, read-out: Minimum Inhibitory Concentration, MIC
[4] = tested on: Staphylococcus aureus 703 (MRSA); assay: microbe, parasite or virus in culture; assay type: cell-based; conditions: 24 h, read-out: Minimum Inhibitory Concentration, MIC
[5] = tested on: Bacillus subtilis 168; assay: microbe, parasite or virus in culture; assay type: cell-based; conditions: 37° C., 24 h, read-out: Minimum Inhibitory Concentration, MIC
[6] = tested on: Enterococcus faecalis 51299; assay: microbe, parasite or virus in culture; assay type: cell-based; conditions: Enterococcus faecalis, 51299, 24 h, read-out: Minimum Inhibitory Concentration, MIC
[7] = tested on: Staphylococcus aureus 704 (MRSA); assay: microbe, parasite or virus in culture; assay type: cell-based; conditions: 24 h, read-out: Minimum Inhibitory Concentration, MIC
[8] = tested on: Streptococcus 10342; assay: MIC broth microdilution; assay type: cell-based; conditions: 37° C., 24 h, read-out: Minimum Inhibitory Concentration, MIC
[9] = tested on: Enterococcus faecalis 1513 (VRE); assay: microbe, parasite or virus in culture; assay type: cell-based; conditions: 24 h, read-out: Minimum Inhibitory Concentration, MIC
[10] = tested on: Streptococcus pneumoniae 62; assay: microbe, parasite or virus in culture; assay type: cell-based; conditions: 37° C., 24 h, read-out: Minimum Inhibitory Concentration, MIC
[11] = tested on: Corynebacterium diphtheriae; assay: microbe, parasite or virus in culture; assay type: cell-based; conditions: 37° C., 24 h, read-out: Minimum Inhibitory Concentration, MIC
[12] = tested on: Enterococcus fecal F631 (VRE); assay: organism not typed; assay type: cell-based; conditions: 24 h, read-out: Minimum Inhibitory Concentration, MIC
[13] = tested on: Staphylococcus aureus 43300 (MRSA); assay: microbe, parasite or virus in culture; assay type: cell-based; conditions: 24 h, read-out: Minimum Inhibitory Concentration, MIC
[14] = tested on: green Streptococcus 1009; assay: microbe, parasite or virus in culture; assay type: cell-based; conditions: 37° C., 24 h, read-out: Minimum Inhibitory Concentration, MIC
[15] = tested on: Bacillus subtilis 82; assay: microbe, parasite or virus in culture; assay type: cell-based; conditions: 37° C., 24 h, read-out: Minimum Inhibitory Concentration, MIC
[16] = tested on: Staphylococcus aureus 29231; assay: microbe, parasite or virus in culture; assay type: cell-based; conditions: 37° C., 24 h, read-out: Minimum Inhibitory Concentration, MIC
[17] = tested on: Staphylococcus aureus 705 (MRSA); assay: microbe, parasite or virus in culture; assay type: cell-based; conditions: 24 h, read-out: Minimum Inhibitory Concentration, MIC
[18] = tested on: Enterococcus faecalis 29212; assay: microbe, parasite or virus in culture; assay type: cell-based; conditions: 37° C., 24 h, read-out: Minimum Inhibitory Concentration, MIC
[19] = tested on: Clostridium tetani; assay: microbe, parasite or virus in culture; assay type: cell-based; conditions: 24 h
[20] = tested on: Clostridium perfringens; assay: microbe, parasite or virus in culture; assay type: cell-based; conditions: 24 h, read-out: Minimum Inhibitory Concentration, MIC
[21] = MIC broth microdilution; assay type: cell-based; conditions: Microorganism 33, Dermatophytosis; 37° C., 24 h; read-out: Minimum Inhibitory Concentration, MIC
[22] = tested on: Oral candidiasis; assay: MIC broth microdilution; assay type: cell-based; conditions: Microorganism 32, Oral candidiasis; 37° C., 24 h; read-out: Minimum Inhibitory Concentration, MIC
[23] = tested on: MRSA 2152; assay: Antibacterial studies in vivo, survival of mice infected with MRSA 2152; conditions: dose mg/kg: ciprofloxacin 20, 3: 30, 7: 40, 21: 50, 33: 25, 70: 70
[24] = tested on: Streptococcus pneumoniae 6301; assay: microbe, parasite or virus in culture; assay type: cell-based; conditions: 37° C., 24 h, read-out: Minimum Inhibitory Concentration, MIC
[25] = tested on: Enterococcus faecalis 19433; assay: microbe, parasite or virus in culture; assay type: cell-based; conditions: 37° C., 24 h, read-out: Minimum Inhibitory Concentration, MIC
[26] = tested on: Streptococcus pneumoniae 6303 (PRSP); assay: microbe, parasite or virus in culture; assay type: cell-based; conditions: 24 h, read-out: Minimum Inhibitory Concentration, MIC
[27] = tested on: Streptococcus pneumoniae M2; assay: microbe, parasite or virus in culture; assay type: cell-based; conditions: 37° C., 24 h, read-out: Minimum Inhibitory Concentration, MIC
[28] = tested on: Bacillus cereus 246; assay: microbe, parasite or virus in culture; assay type: cell-based; conditions: 37° C., 24 h, read-out: Minimum Inhibitory Concentration, MIC
[29] = tested on: Streptococcus pneumoniae 10351; assay: microbe, parasite or virus in culture; assay type: cell-based; conditions: 37° C., 24 h, read-out: Minimum Inhibitory Concentration, MIC
[30] = tested on: Enterococcus faecalis F2518 (VRE); assay: microbe, parasite or virus in culture; assay type: cell-based; conditions: 24 h, read-out: Minimum Inhibitory Concentration, MIC
[31] = tested on: Bacillus anthracis 1; assay: microbe, parasite or virus in culture; assay type: cell-based; conditions: Bacillus anthracis, 1, 24 h, read-out: Minimum Inhibitory Concentration, MIC
[32] = tested on: Streptococcus bovis 10035; assay: microbe, parasite or virus in culture; assay type: cell-based; conditions: Streptococcus equinus, 37° C., 24 h, read-out: Minimum Inhibitory Concentration, MIC
[33] = tested on: Pyogenic Streptococcus; assay: microbe, parasite or virus in culture; assay type: cell-based; conditions: 37° C., 24 h, read-out: Minimum Inhibitory Concentration, MIC
[34] = tested on: Enterococcus faecalis 583 (VRE); assay: microbe, parasite or virus in culture; assay type: cell-based; conditions: 24 h, read-out: Minimum Inhibitory Concentration, MIC

Cc1c(-c2ccc(C#N)cc2)[nH]c2c(-c3ccc(Cl)cc3Cl)c(-c3ccccc3)nn2c1=O [Compound 70]
inhibition of growth (conclusion from MICs) [1]: significantly inhibited the growth
MIC [2]: 0.31 µM (≈ 0.146 µg/mL)
MIC [3]: 0.25 µM (≈ 0.118 µg/mL)
MIC [4]: 1.25 µM (≈ 0.589 µg/mL)
MIC [5]: 1.25 µM (≈ 0.589 µg/mL)
MIC [6]: 2.5 µM (≈ 1.18 µg/mL)
MIC [7]: 0.35 µM (≈ 0.165 µg/mL)
MIC [8]: 1.23 µM (≈ 0.58 µg/mL)
MIC [9]: 2.5 µM (≈ 1.18 µg/mL)
MIC [10]: 10.5 µM (≈ 4.95 µg/mL)
MIC [11]: 45.2 µM (≈ 21.3 µg/mL)
MIC [12]: 0.55 µM (≈ 0.259 µg/mL)
MIC [13]: 0.56 µM (≈ 0.264 µg/mL)
MIC [14]: 0.23 µM (≈ 0.108 µg/mL)
MIC [15]: 1.25 µM (≈ 0.589 µg/mL)
MIC [16]: 0.55 µM (≈ 0.259 µg/mL)
MIC [17]: 0.55 µM (≈ 0.259 µg/mL)
MIC [18]: 2.5 µM (≈ 1.18 µg/mL)
MIC ([19]; read-out: Minimum Inhibitory Concentration, MIC, Microorganism 29, Clostridium tetani, 37° C.): 80.2 µM (≈ 37.8 µg/mL)
MIC ([19]; read-out: Minimum Inhibitory Concentration, MIC, Microorganism 30, Clostridium tetani (second line of that name), 37° C.): 50.2 µM (≈ 23.7 µg/mL)
MIC [20]: 30.6 µM (≈ 14.4 µg/mL)
MIC [21]: 125 µM (≈ 59.1 µg/mL)
MIC [22]: 120 µM (≈ 56.8 µg/mL)
Survival rate (%) (life prolongation rate) ([23]; (survival days of test group − blank group)/blank group ×100%, MRSA 2152 mice, tail vein): 253.8%
Survival ([23]; mice inoculated intraperitoneally with MRSA 2152, test compound by tail vein, repeated after six hours, saline 1.3 days): 4.6 days
MIC [24]: 0.2 µM (≈ 0.0943 µg/mL)
MIC [25]: 0.23 µM (≈ 0.108 µg/mL)
MIC [26]: 0.04 µM (≈ 0.0189 µg/mL)
MIC [27]: 0.63 µM (≈ 0.297 µg/mL)
MIC [28]: 1.32 µM (≈ 0.622 µg/mL)
MIC [29]: 0.55 µM (≈ 0.259 µg/mL)
MIC [30]: 0.55 µM (≈ 0.259 µg/mL)
MIC [31]: 12.5 µM (≈ 5.89 µg/mL)
MIC [32]: 0.02 µM (≈ 0.00943 µg/mL)
MIC [33]: 1.33 µM (≈ 0.627 µg/mL)
MIC [34]: 1.25 µM (≈ 0.589 µg/mL)
